This is an account of results in PMC5131364, “Pharmacologic modulation of RORγt translates to efficacy in preclinical and translational models of psoriasis and inflammatory arthritis” (Scientific Reports, 2016).

Type in all cases: cell-based
The subject of assay [1] is CD4+ T cells under Th1 conditions. Kind of assay: Mouse CD4+ T cell in vitro Th1 differentiation. The settings on record: titrated compound, ELISA. The procedure: Mouse CD4+ T cell in vitro Th1 differentiation
Total CD4+ T cells were isolated from splenocytes of C57/BL6 mice (Chareles River Labrotory) using a CD4+ T cell isolation kit (Miltenyl Biotec, Auburn, CA), following the manufacturer’s instructions. Cells were resuspended in culture medium (described in Method section of Th17 differentiation) and were added to 96‐well plates at 2x10^5 per well. Titrated JNJ‐54271074 was added to each well at final DMSO concentration of 0.2%. Cells were incubated for 1 hour, after which Th1 cell differentiation medium was added with final concentrations of 1 µg/ml anti‐CD3, 5 µg/mL anti‐CD28 (BD Pharmingen, San Diego, CA), 10 µg/ml anti‐IL4, 10 ng/mL IL‐12, (R&D Systems, Minneapolis, MN). Cells were cultured at 37 °C and 5% CO2 for 3 days. Supernatants were collected and the accumulated cytokines in culture were measured by ELISA kits (R&D Systems, Minneapolis, MN) following manufacturers' instructions.
IL‐23 induced IL‐17A and IL‐22 production in mouse splenocytes splenocytes were isolated from C57/BL6 mice and resuspended in medium and cultured in 96‐well plates at […] per 100 µL per well. […] Supernatants were collected and the accumulated cytokines in culture were measured by ELISA according to the manufacturer’s instructions (IL‐17A kit from R&D systems, and IL‐22 from Biolegend San Diego). […]

Assay [2] relates to mouse splenic γδ T cells. Kind of assay: Mouse γδ+ T cell in vitro activation. The settings on record: for IC50: Mus musculus, T-cell, IL-1β/IL-23 plus anti-IFNγ, 65 hours, ELISA. An excerpt:
The following antibodies (anti-mouse or anti-human) were purchased from BD Biosciences (San Diego, CA) or eBioscience (San Diego, CA): anti-CD3-FITC (mouse 17A2 and human SK7), anti-CD4-allophycocyanin (APC), anti-CD4-PerCp, anti-CD4-FITC, anti-CD4-PE (mouse GK1.5 and human SK3), anti-CD44-PerCp (mouse IM7), anti-γδ TCR-FITC, anti-γδ TCR-PE (mouse GL3 and human B1), anti-CD62L-FITC (mouse MEL-14 and human SK11), anti-CD45RO-APC (human UCHL1), anti-CCR6-PE (human 11A9), anti-CD45-PerCp (mouse 30-F11). Human or mouse anti-IFNγ (mouse XMG1.2 and human 4S.B3), anti-TNFα (mouse MP6-XT22 and human MAB11), anti-IL-17A (mouse eBio17B7 and human eBio64DEC17), anti-IL-22 (mouse 1H8PWSR and human 22URTI), and anti-Foxp3 (mouse FJK-16s and human 36A/E7), all PE or APC conjugated, were purchased from eBioscience (San Diego, CA). Human and mouse APC conjugated CD1d tetramers pre-loaded with alpha-GalCer and negative controls were obtained from ProImmune. For intracellular staining cells were stimulated for 4 hours at 37 °C with PMA and ionomycin (0.5 μg/ml each) in the presence of brefeldin A and monensin or with leukocyte activation cocktail (BD Bioscience, San Diego, CA). Cells were stained with fluorescence-labeled antibodies for surface marker, then fixed/permeabilized (eBioscience) and stained with antibodies for intracellular cytokines. For Foxp3 staining cells were fixed/permeabilized using transcription factor buffer set (eBioscience). The data were acquired on a FACS Calibur (BD Bioscience) and analyzed using FlowJo software (Tree Star, San Carlos, CA).
Mouse γδ^+ T cells were isolated from splenocytes of C57BL/6N mice using TCR γδ^+ T Cell Isolation Kit (Miltenyl Biotec, Auburn, CA), following the manufacturer’s instructions. Cells were resuspended in culture medium and seeded in 96-well plates at 5 × 10^4 per well. […] Cells were incubated at 37 °C and 5% CO2 for 65 hours before sample collection. Supernatant samples were collected for measurement of IL-17A, IL-17F and IL-22 using R&D ELISA kits, according to manufacturer’s instructions. Cytokine-producing cells were analyzed through intracellular staining and flow cytometry analysis.
A general note: In an ELISA, binding on a coated surface is turned into a signal by an enzyme label.

Assay [3] has as its system iNKT cells from human PBMCs. Kind of assay: Human NKT cell in vitro activation. The settings on record: IL-1β/IL-23, 6 days, 1 μM.
Assay [4] relates to PBMC from healthy donors. Kind of assay: IL-17A production from PBMC of healthy donors. The settings on record: Homo sapiens, typically observed. The text has this: Frozen PBMCs of healthy and rheumatoid arthritis patients were obtained from SeraCare Life Sciences (Gaithersburg, MD). […] 3 days later, supernatants were collected and analyzed by MSD multi-spot assay or ELISA for IL-17A, IL-22 and IL-13 production.

Read-outs that look alike come from different tables or passages of the source.

Broadly, the IC50 is the point on the concentration scale where inhibition reaches its midpoint. `COc1nc2ccc([C@@](O)(c3ccc(C)nc3C)c3cnnn3C)cc2c(Cl)c1Cc1ccc(C(F)(F)F)cc1` [JNJ-54271074]: the “IFNγ production under Th1 conditions” value in assay [1] is “minimal effects”. Besides, the “decrease of the percentage of IL-17A- and IL-17A/IL-22-producing cells” value in assay [2] (0.1 μM) is on record as “about 50%”. For the same compound, the IC50 in assay [2] (read-out: IC50, IL-17A production) was determined as 77 nM; in assay [2] (read-out: IC50, IL-17F production), 54 nM; in assay [2] (read-out: IC50, IL-22 production), 83 nM; in assay [4], 3 ± 0.9 nM. Besides, in assay [3], the “IL-17A production by iNKT cells from human PBMCs” value is listed as “suppressed”.
